Among the test systems are SK-MEL-28; HT-29; HOP-92; SK-MEL-2; HCC 2998; Hs-578T; T47D; SK-OV-3; M14; SR; DU-145; OVCAR-5; U-251; HOP-62; COLO 205; NCI/ADR-RES; Malme-3M; MCF7; A498.
Assay in all cases: DTP human tumour cell line panel, 48 h

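Results reflect a 48-hour exposure of cells in 96-well plates to compound at five concentrations. GI50: concentration for 50% inhibition of growth.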 Active and inactive are the calls of the source. Cut-off read from the data, not from the text of the source: active = GI50 up to about 1.1 µM and inactive = higher.

On to `COC(=O)Cc1ccc(Oc2nc3ccccc3nc2-c2cccs2)cc1`, for which the GI50 in the assay on SK-MEL-28 is > 100 µM (inactive); with HT-29 it was > 100 µM (inactive); in the assay on HOP-92, 24.2 µM (inactive); in the assay with SK-MEL-2 it was 53.5 µM (inactive); in the assay on HCC 2998, > 100 µM (inactive); in the assay with Hs-578T, 39.8 µM (inactive). In addition, the GI50 with T47D was > 100 µM (inactive); in the assay on SK-OV-3, 24.8 µM (inactive); in the assay on M14 it was > 100 µM (inactive); in the assay on SR it was > 100 µM (inactive); in the assay with DU-145, > 100 µM (inactive); in the assay with OVCAR-5 it was > 100 µM (inactive). Also, the GI50 in the assay on U-251 is 39.1 µM (inactive); in the assay on HOP-62, 38.5 µM (inactive); with COLO 205, > 100 µM (inactive); in the assay on NCI/ADR-RES it was 79.4 µM (inactive); with Malme-3M it was > 100 µM (inactive); in the assay on MCF7 it was > 100 µM (inactive).

Turning to `CC1CC(N)=C(C#N)C1(C#N)C#N` (stereo not drawn), the GI50 with HT-29, with HOP-92, in the assay with SK-MEL-2, in the assay with HCC 2998, in the assay on Hs-578T and in the assay on T47D was > 100 µM (inactive) each time. The GI50 in the assay with SK-OV-3, in the assay with M14, with DU-145, in the assay with OVCAR-5, with U-251 and in the assay with A498 was > 100 µM (inactive) each time. The GI50 in the assay with COLO 205, in the assay on NCI/ADR-RES, with Malme-3M and in the assay on MCF7 was > 100 µM (inactive) throughout.

Turning to `COc1ccccc1[C@@H]1CCC2CC[C@@H](c3ccccc3OC)[N+]21Cc1ccccc1` (stereo partly drawn), the GI50 in the assay with SK-MEL-28 is 3.56 µM (inactive); in the assay on HT-29 it was 0.847 µM (active); in the assay with HOP-92, 0.968 µM (active); in the assay with SK-MEL-2, 1.51 µM (inactive); with Hs-578T it was 4.49 µM (inactive); in the assay on T47D, 0.349 µM (active). Further, the GI50 in the assay on SK-OV-3 was 2.84 µM (inactive); in the assay with M14, 2.24 µM (inactive); in the assay with SR, 1.03 µM (active); with DU-145, 2.28 µM (inactive); with OVCAR-5, 2.88 µM (inactive); in the assay with U-251 it was 0.385 µM (active). In addition, the GI50 in the assay with HOP-62 is 2.33 µM (inactive); in the assay on A498, 2.25 µM (inactive); with COLO 205, 0.44 µM (active); with NCI/ADR-RES it was 13 µM (inactive); with Malme-3M, 2.3 µM (inactive); in the assay with MCF7 it was 0.581 µM (active).

For `Cc1nc(-c2cc3c(ccc4ccccc43)oc2=O)cs1`, the GI50 in the assay with SK-MEL-28 was > 100 µM (inactive); in the assay on HT-29, > 100 µM (inactive); in the assay with HOP-92, 30.2 µM (inactive); in the assay with SK-MEL-2 it was > 100 µM (inactive); in the assay with HCC 2998, > 100 µM (inactive); in the assay with Hs-578T, 30.3 µM (inactive). In addition, the GI50 was > 100 µM (inactive) with T47D; 37.8 µM (inactive) in the assay on SK-OV-3; 83.9 µM (inactive) in the assay with M14; > 100 µM (inactive) with SR; > 100 µM (inactive) with DU-145; > 100 µM (inactive) in the assay with OVCAR-5. In addition, the GI50 was 57.9 µM (inactive) with U-251; 35.7 µM (inactive) with HOP-62; > 100 µM (inactive) with COLO 205; 48.3 µM (inactive) in the assay with NCI/ADR-RES; 76.2 µM (inactive) in the assay with Malme-3M; > 100 µM (inactive) in the assay with MCF7.

For the molecule `Cc1cn(CC2=NCC(C)(C)CN2)c(=O)[nH]c1=O`, the GI50 with SK-MEL-28, with HT-29, with HOP-92, in the assay on SK-MEL-2, in the assay on HCC 2998 and in the assay with Hs-578T was > 100 µM (inactive) in each case. Also, the GI50 with T47D, in the assay with SK-OV-3, with M14, in the assay on DU-145, with OVCAR-5 and in the assay with U-251 was > 100 µM (inactive) in each case. The GI50 in the assay on HOP-62, in the assay on A498, with COLO 205, in the assay with NCI/ADR-RES, in the assay with Malme-3M and in the assay with MCF7 was > 100 µM (inactive) each time.

Regarding `N#CCCC1(CCC#N)CCCCCCCCC(CCC#N)(CCC#N)C(O)C1O` (stereo not drawn), the GI50 was > 100 µM (inactive) in the assay with SK-MEL-28; > 100 µM (inactive) in the assay on HT-29; > 100 µM (inactive) with HOP-92; > 100 µM (inactive) in the assay with SK-MEL-2; > 100 µM (inactive) in the assay on HCC 2998; 52 µM (inactive) in the assay on Hs-578T. The GI50 in the assay on T47D was > 100 µM (inactive); with SK-OV-3 it was > 100 µM (inactive); with M14, > 100 µM (inactive); with DU-145, > 100 µM (inactive); in the assay with OVCAR-5, > 100 µM (inactive); with U-251 it was 46.7 µM (inactive). Also, the GI50 is 61.7 µM (inactive) with HOP-62; 94.6 µM (inactive) in the assay on A498; > 100 µM (inactive) with COLO 205; > 100 µM (inactive) in the assay with NCI/ADR-RES; > 100 µM (inactive) in the assay with Malme-3M; > 100 µM (inactive) with MCF7.

Take `COc1cc(=O)oc(/C=C/C=C/C=C/C(C)=C\C2(C)OC(C)C(C)(O)C2O)c1C` (stereo not drawn): the GI50 with SK-MEL-28 was > 100 µM (inactive); in the assay with HT-29 it was > 100 µM (inactive); in the assay on HOP-92 it was > 100 µM (inactive); in the assay with SK-MEL-2, > 100 µM (inactive); with Hs-578T, 0.923 µM (active); in the assay with T47D, > 100 µM (inactive). In addition, the GI50 in the assay with SK-OV-3, in the assay on M14, with SR, in the assay with DU-145, in the assay with OVCAR-5 and in the assay on U-251 was > 100 µM (inactive) in each case. In addition, the GI50 in the assay with HOP-62, in the assay with A498, in the assay with COLO 205, in the assay on NCI/ADR-RES and in the assay with MCF7 was > 100 µM (inactive) in each case.

On to `O=c1c(Br)cc2c(-c3ccccc3)c3cc(Br)c(O)c(Br)c3oc-2c1Br`, for which the GI50 in the assay with SK-MEL-28 is > 100 µM (inactive); in the assay with HT-29, 21.7 µM (inactive); in the assay on HOP-92, > 100 µM (inactive); in the assay with HCC 2998 it was 83.8 µM (inactive); in the assay with Hs-578T, > 100 µM (inactive); with T47D it was > 100 µM (inactive). For the same molecule, the GI50 is 48.4 µM (inactive) in the assay with SK-OV-3; > 100 µM (inactive) with M14; > 100 µM (inactive) with DU-145; > 100 µM (inactive) in the assay with OVCAR-5; > 100 µM (inactive) in the assay with U-251; > 100 µM (inactive) in the assay on HOP-62. Moreover, the GI50 in the assay on A498 was 27.3 µM (inactive); with COLO 205, 51.2 µM (inactive); in the assay with NCI/ADR-RES, > 100 µM (inactive); in the assay with Malme-3M, > 100 µM (inactive); in the assay with MCF7 it was 79.3 µM (inactive).

On to `Cc1cc(C)nc(NS(=O)(=O)c2ccc(NNC(=O)c3cccc4c(NNc5ccc(S(=O)(=O)Nc6nc(C)cc(C)n6)cc5)c5ccccc5nc34)cc2)n1`, for which the GI50 is 23.4 µM (inactive) in the assay with SK-MEL-28; 21.8 µM (inactive) with HT-29; 17.8 µM (inactive) in the assay on HOP-92; 23.6 µM (inactive) with SK-MEL-2; 21.4 µM (inactive) in the assay on HCC 2998; 23.4 µM (inactive) in the assay on Hs-578T. Also, the GI50 is 19.5 µM (inactive) in the assay on T47D; 25.3 µM (inactive) in the assay on SK-OV-3; 17.5 µM (inactive) with M14; 20.5 µM (inactive) with SR; 19.4 µM (inactive) with DU-145; 20.1 µM (inactive) in the assay on OVCAR-5. Further, the GI50 was 22.9 µM (inactive) in the assay on U-251; 27.8 µM (inactive) in the assay with HOP-62; 20.9 µM (inactive) with COLO 205; 68.5 µM (inactive) in the assay with NCI/ADR-RES; 20.7 µM (inactive) in the assay with Malme-3M; 31.5 µM (inactive) in the assay with MCF7.

On to `COC(=O)/N=[N+](\[O-])C(c1ccc(OC)cc1)C1CCCCC1` (stereo not drawn), for which the GI50 in the assay on SK-MEL-28 was 13.6 µM (inactive); in the assay on HT-29, 1.29 µM (inactive); with HOP-92, 5.85 µM (inactive); in the assay on SK-MEL-2 it was 13.3 µM (inactive); in the assay on HCC 2998 it was 2.12 µM (inactive); with Hs-578T, 6.3 µM (inactive). The GI50 was 0.303 µM (active) in the assay with T47D; 3.67 µM (inactive) with SK-OV-3; 2.99 µM (inactive) in the assay on M14; 1.86 µM (inactive) in the assay on DU-145; 2.58 µM (inactive) in the assay with OVCAR-5; 1.03 µM (active) in the assay on U-251. Moreover, the GI50 was 4.84 µM (inactive) in the assay on HOP-62; 6.67 µM (inactive) in the assay on A498; 0.611 µM (active) in the assay on COLO 205; 2.11 µM (inactive) in the assay on NCI/ADR-RES; 2.02 µM (inactive) with Malme-3M; 7.35 µM (inactive) in the assay on MCF7.

For the molecule `CC(=O)Oc1ccc(-c2cc3ccccc3oc2=O)cc1OC(C)=O`, the GI50 with SK-MEL-28 is 43.5 µM (inactive); in the assay with HT-29, 36 µM (inactive); with SK-MEL-2 it was 38.5 µM (inactive); in the assay with HCC 2998, 18.7 µM (inactive); with Hs-578T it was 35.9 µM (inactive); in the assay on T47D, 36.2 µM (inactive). In addition, the GI50 with M14 is 21.6 µM (inactive); with SR it was 8.63 µM (inactive); in the assay on DU-145 it was 24.9 µM (inactive); with OVCAR-5 it was 15.9 µM (inactive); in the assay with U-251, 32.7 µM (inactive); in the assay on HOP-62 it was 43.7 µM (inactive). The GI50 was 35.6 µM (inactive) with A498; 43.5 µM (inactive) in the assay with COLO 205; 21.3 µM (inactive) with NCI/ADR-RES; 51.4 µM (inactive) with Malme-3M; 59.2 µM (inactive) in the assay on MCF7.

By GI50 is commonly meant the concentration at which growth is held to half of that of the control.

Values taken from ChEMBL document CHEMBL1201862, “PubChem BioAssay data set” (2004).
